Results as given in patent US20090104167A1, “Prophylactic/Ameliorating Agent for Menopausal Disorder and Functional Beverage/Food” (Calpis Co., Ltd., priority 2005, published 2009).

Columns and labels:
[1] = Lignan-metabolizing ability of microorganisms: conversion of pinoresinol to secoisolariciresinol (HPLC); parameters: key to pinoresinol to secoisolariciresinol: o indicates that the lignan was converted in 50% or more; x indicates that most of the lignan was not converted; conditions: for pinoresinol to secoisolariciresinol: lignan 0.5 mM in MRS or GAM medium, culture at 37° C., HPLC
Description: Lignan-metabolizing abilities of various types of microorganisms were evaluated. The various microorganisms shown in the following Tables 1 to 3 were pre-cultured in MRS medium or GAM medium at 37° C. for 20 to 24 hours, and inoculated at 1 to 3% to 10 ml of MRS medium or GAM medium Du zhong lignan (pinoresinol and medioresinol) was added at a final concentration of 0.5 mM in the medium, and continued to culture at 37° C. Samples were taken at regular intervals and assayed by HPLC to monitor the conversion of lignan to secoisolariciresinol.

[2] = target: T1, human estrogen receptor α (Homo sapiens, UniProt P03372); assay: Inhibition of [3H]estradiol binding to estrogen receptor α; conditions: for binding inhibition rate to estrogen receptor α, inhibition rate (%): One millimolar test sample, 0.5 nM tritium-labeled estradiol, 25° C., 2 hours, pH 7.4
T1 sequence (P03372 1-595): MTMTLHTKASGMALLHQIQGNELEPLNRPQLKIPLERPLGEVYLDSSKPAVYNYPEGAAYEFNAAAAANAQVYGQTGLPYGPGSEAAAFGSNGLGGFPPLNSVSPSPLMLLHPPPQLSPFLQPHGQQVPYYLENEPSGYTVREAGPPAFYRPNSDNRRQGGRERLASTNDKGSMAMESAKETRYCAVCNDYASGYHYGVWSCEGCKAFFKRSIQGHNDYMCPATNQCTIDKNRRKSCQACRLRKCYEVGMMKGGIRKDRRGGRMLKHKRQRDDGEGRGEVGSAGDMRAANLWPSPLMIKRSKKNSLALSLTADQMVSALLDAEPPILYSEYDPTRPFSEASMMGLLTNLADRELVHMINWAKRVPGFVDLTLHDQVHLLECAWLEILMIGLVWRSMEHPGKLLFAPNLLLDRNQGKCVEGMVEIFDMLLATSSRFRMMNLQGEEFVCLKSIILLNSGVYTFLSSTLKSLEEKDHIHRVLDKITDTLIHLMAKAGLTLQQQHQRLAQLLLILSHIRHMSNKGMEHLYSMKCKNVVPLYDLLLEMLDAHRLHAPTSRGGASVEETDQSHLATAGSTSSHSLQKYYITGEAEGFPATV
Description: (§1) One millimolar of a test sample (pinoresinol diglycoside, pinoresinol and secoisolariciresinol) and 0.5 nM of tritium-labeled estradiol were reacted in 10 mM of tris buffer at pH 7.4 (with 0.1% BSA, 10% Glycerol, 1 mM DTT) containing a human estrogen receptor α or β at 25° C. for 2 hours. After completion of the reaction, the receptor was collected and washed to measure the amount of the tritium-labeled estradiol bound to the receptor according to a conventional method. The binding level of [^3H] Estradiol in the presence of a lignan or a metabolic intermediate was calculated with the binding of 0.5 nM of [^3H] Estradiol to the receptor as 100%, which was subtracted from 100 to define a binding inhibition rate.

[3] = target: human estrogen receptor β (Homo sapiens, UniProt Q92731); assay: Inhibition of [3H]estradiol binding to estrogen receptor β; conditions: One millimolar test sample, 0.5 nM tritium-labeled estradiol, 25° C., 2 hours, pH 7.4
Chain of human estrogen receptor β (Q92731 whole entry): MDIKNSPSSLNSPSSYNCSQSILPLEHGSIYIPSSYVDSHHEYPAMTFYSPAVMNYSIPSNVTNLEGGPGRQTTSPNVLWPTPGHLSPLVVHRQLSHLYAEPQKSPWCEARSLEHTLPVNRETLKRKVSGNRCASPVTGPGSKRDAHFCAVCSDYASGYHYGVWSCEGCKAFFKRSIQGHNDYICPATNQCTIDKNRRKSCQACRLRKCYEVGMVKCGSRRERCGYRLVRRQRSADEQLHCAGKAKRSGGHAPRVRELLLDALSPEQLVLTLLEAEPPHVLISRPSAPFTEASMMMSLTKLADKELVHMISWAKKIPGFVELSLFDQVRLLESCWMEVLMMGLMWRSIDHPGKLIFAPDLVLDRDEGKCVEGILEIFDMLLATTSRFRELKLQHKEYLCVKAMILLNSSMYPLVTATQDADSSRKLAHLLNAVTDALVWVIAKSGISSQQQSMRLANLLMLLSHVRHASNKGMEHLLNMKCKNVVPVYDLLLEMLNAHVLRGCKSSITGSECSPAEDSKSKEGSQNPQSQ
Description: as §1

Row | Compound | pinoresinol to secoisolariciresinol [1] | binding inhibition rate to estrogen receptor α, inhibition rate (%) [2] | binding inhibition rate to estrogen receptor β, inhibition rate (%) [3] | also measured
1 | Lactobacillus acidophilus | ∘ |  |  | ability to produce secoisolariciresinol from pinoresinol (in words) ([1]; summary of Tables 1 to 3): capable of producing secoisolariciresinol from pinoresinol
2 | Lactobacillus plantarum | x |  |  | 
3 | Bifidobacterium | x |  |  | 
4 | Lactobacillus reuteri | x |  |  | 
5 | pinoresinol |  | 23% | 30% | 
6 | COc1cc([C@H]2OC[C@H]3[C@@H]2CO[C@@H]3c2ccc(O[C@@H]3O[C@H](CO)[C@@H](O)[C@H](O)[C@H]3O)c(OC)c2)ccc1O[C@@H]1O[C@H](CO)[C@@H](O)[C@H](O)[C@H]1O [pinoresinol diglycoside] |  | 4% | 5% | 
7 | COc1cc(C[C@@H](CO)[C@H](CO)Cc2ccc(O)c(OC)c2)ccc1O [secoisolariciresinol] |  | 43% | 52% | binding inhibition rate to an estrogen receptor relative to pinoresinol diglycoside ([2]; estrogen receptor subtype not specified, versus pinoresinol diglycoside): ten times higher
